Results published in the kinase profiling compilation of Christmann-Franck et al. (2016).

Assays:
Experiment in all cases: KINOMEscan competition binding
Settings in all cases: compound 10.0 µM
[1] = biological target: ROCK2 (human) (UniProt O75116)
[2] = biological target: PIK3CD (human) (UniProt O00329)
[3] = biological target: MAPK7 (human) (UniProt Q13164)
[4] = biological target: EPHA1 (human) (UniProt P21709)
[5] = biological target: STK11 (human) (UniProt Q15831)
[6] = biological target: FGFR2 (human) (UniProt P21802)
[7] = biological target: TTK (human) (UniProt P33981)
[8] = biological target: DDR2 (human) (UniProt Q16832)
[9] = biological target: SRPK2 (human) (UniProt P78362)
Chain of SRPK2 (human) (P78362 whole entry, looked up): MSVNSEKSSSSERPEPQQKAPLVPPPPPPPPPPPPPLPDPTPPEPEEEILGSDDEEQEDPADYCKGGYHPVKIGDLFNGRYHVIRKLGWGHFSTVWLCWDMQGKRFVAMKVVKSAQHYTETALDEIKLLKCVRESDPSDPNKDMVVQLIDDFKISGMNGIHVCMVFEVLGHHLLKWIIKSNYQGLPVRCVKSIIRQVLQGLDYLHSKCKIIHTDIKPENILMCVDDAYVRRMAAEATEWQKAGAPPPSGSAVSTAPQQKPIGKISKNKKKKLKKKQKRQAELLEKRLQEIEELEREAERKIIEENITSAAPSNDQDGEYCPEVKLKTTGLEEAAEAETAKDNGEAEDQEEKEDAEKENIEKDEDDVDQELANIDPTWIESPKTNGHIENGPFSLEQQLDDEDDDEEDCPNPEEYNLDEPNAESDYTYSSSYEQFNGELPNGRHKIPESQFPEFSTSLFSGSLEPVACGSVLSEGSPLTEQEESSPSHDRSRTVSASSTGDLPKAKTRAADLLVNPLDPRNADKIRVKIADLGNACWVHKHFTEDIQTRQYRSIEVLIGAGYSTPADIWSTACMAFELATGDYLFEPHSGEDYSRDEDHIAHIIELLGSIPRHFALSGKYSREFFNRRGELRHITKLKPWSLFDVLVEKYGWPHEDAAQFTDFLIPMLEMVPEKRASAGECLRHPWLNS

[10] = biological target: MAPK4 (human) (UniProt P31152)
Chain of MAPK4 (human) (P31152 whole entry, looked up): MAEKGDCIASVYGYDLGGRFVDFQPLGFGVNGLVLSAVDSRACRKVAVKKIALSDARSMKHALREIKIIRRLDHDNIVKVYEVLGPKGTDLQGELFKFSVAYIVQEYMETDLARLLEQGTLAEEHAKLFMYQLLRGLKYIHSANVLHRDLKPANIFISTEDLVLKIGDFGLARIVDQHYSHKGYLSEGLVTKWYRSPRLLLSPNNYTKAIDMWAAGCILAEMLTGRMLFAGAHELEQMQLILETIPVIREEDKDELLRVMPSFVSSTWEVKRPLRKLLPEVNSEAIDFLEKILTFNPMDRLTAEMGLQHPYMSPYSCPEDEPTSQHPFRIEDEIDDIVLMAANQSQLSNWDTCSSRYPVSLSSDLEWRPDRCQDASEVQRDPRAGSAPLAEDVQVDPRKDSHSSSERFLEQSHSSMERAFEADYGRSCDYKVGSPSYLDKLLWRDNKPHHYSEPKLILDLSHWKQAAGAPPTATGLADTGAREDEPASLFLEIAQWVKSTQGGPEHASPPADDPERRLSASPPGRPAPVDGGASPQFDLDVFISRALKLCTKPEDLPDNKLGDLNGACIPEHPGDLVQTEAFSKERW

[11] = biological target: NUAK1 (human) (UniProt O60285)
[12] = biological target: SRPK1 (human) (UniProt Q96SB4)
[13] = biological target: PDPK1 (human) (UniProt O15530)
[14] = biological target: PRKX (human) (UniProt P51817)
Chain of PRKX (human) (P51817 whole entry, looked up): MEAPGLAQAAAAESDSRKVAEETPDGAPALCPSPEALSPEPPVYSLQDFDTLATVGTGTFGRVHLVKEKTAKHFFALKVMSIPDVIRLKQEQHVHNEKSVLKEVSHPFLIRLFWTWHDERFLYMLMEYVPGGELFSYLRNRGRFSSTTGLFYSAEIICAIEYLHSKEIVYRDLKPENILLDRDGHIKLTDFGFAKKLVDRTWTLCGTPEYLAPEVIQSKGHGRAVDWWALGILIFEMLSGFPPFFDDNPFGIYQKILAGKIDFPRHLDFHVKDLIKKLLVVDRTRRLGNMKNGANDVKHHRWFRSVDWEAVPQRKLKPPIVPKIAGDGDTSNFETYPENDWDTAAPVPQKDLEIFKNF

[15] = biological target: LIMK2 (human) (UniProt P53671)
[16] = biological target: EPHB3 (human) (UniProt P54753)
[17] = biological target: IGF1R (human) (UniProt P08069)
[18] = biological target: JAK3 JH1 catalytic (human) (UniProt P52333)
Chain of JAK3 JH1 catalytic (human) (P52333 whole entry, looked up): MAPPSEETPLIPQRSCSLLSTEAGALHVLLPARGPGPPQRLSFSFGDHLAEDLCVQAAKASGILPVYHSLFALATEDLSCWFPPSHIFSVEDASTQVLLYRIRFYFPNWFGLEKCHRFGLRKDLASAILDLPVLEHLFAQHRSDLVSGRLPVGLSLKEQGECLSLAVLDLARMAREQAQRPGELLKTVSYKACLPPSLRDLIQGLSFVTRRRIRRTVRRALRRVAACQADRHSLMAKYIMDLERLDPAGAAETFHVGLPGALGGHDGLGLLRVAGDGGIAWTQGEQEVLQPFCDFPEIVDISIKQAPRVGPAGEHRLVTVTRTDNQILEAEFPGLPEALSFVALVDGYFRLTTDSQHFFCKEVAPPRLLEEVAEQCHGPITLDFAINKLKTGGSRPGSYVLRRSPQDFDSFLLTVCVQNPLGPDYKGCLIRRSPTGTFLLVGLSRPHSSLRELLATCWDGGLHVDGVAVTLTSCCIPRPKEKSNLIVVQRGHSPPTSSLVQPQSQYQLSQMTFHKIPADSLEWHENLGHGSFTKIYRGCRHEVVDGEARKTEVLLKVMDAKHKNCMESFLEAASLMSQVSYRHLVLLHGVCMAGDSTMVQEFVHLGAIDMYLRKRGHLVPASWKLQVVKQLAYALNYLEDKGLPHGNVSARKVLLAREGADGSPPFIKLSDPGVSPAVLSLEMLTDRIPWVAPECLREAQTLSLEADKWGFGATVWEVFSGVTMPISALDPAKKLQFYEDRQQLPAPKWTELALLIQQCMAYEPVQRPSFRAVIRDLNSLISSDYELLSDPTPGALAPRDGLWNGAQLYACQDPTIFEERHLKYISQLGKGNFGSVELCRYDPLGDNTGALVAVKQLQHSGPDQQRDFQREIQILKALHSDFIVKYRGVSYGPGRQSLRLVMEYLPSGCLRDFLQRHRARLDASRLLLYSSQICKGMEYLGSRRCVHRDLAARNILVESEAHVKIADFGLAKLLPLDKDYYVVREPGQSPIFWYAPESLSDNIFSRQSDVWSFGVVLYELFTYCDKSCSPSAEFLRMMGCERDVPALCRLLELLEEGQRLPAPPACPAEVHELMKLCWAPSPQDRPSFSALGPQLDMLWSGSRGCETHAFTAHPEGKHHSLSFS

[19] = biological target: MST4 (human) (UniProt Q9P289)
[20] = biological target: ULK2 (human) (UniProt Q8IYT8)
[21] = biological target: TYK2 JH1 catalytic (human) (UniProt P29597)
[22] = biological target: FGFR3 (human) (UniProt P22607)
[23] = biological target: CHEK2 (human) (UniProt O96017)
[24] = biological target: TEK (human) (UniProt Q02763)
[25] = biological target: MAP2K4 (human) (UniProt P45985)
[26] = biological target: CDK3 (human) (UniProt Q00526)
[27] = biological target: EPHB1 (human) (UniProt P54762)
[28] = biological target: BMPR1A (human) (UniProt P36894)
[29] = biological target: MKNK1 (human) (UniProt Q9BUB5)
[30] = biological target: SYK (human) (UniProt P43405)
[31] = biological target: CSNK1G3 (human) (UniProt Q9Y6M4)
[32] = biological target: TLK1 (human) (UniProt Q9UKI8)
[33] = biological target: PKMYT1 (human) (UniProt Q99640)
[34] = biological target: MAPK1 (human) (UniProt P28482)
[35] = biological target: CAMKK2 (human) (UniProt Q96RR4)
[36] = biological target: PAK1 (human) (UniProt Q13153)
Chain of PAK1 (human) (Q13153 whole entry, looked up): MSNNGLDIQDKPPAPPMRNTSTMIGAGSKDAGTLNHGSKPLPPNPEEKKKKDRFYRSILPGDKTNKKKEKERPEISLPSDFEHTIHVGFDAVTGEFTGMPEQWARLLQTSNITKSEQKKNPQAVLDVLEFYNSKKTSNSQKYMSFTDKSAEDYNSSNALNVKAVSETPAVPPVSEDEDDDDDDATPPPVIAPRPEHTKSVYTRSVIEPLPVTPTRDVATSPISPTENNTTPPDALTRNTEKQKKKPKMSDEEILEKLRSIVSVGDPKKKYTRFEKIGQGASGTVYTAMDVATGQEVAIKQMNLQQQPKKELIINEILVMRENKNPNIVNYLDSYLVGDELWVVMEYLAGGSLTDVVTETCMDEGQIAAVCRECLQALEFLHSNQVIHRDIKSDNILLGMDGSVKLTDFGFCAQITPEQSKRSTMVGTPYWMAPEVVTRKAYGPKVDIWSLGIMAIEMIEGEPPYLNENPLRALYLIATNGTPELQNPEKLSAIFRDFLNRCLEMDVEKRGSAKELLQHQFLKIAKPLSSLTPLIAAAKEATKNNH

[37] = biological target: PAK6 (human) (UniProt Q9NQU5)
Chain of PAK6 (human) (Q9NQU5 whole entry, looked up): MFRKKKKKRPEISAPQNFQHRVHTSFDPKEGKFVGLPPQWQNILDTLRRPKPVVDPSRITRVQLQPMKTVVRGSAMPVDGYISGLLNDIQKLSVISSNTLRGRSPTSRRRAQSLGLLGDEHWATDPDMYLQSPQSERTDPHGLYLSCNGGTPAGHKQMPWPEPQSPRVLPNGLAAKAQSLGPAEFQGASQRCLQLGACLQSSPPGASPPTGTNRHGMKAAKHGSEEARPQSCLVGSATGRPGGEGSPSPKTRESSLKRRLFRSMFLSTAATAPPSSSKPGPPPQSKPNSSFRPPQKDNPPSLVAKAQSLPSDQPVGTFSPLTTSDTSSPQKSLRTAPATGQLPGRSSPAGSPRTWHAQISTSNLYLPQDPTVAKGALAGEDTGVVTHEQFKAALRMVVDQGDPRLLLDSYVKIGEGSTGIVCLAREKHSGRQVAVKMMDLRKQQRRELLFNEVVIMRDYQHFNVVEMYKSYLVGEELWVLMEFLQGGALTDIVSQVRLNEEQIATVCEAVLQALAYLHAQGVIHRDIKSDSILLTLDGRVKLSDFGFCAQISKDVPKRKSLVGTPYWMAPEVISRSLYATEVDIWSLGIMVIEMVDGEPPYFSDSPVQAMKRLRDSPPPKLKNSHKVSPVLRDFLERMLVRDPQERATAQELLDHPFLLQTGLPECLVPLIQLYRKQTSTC

Chain of EPHA1 (human) (P21709 whole entry, looked up): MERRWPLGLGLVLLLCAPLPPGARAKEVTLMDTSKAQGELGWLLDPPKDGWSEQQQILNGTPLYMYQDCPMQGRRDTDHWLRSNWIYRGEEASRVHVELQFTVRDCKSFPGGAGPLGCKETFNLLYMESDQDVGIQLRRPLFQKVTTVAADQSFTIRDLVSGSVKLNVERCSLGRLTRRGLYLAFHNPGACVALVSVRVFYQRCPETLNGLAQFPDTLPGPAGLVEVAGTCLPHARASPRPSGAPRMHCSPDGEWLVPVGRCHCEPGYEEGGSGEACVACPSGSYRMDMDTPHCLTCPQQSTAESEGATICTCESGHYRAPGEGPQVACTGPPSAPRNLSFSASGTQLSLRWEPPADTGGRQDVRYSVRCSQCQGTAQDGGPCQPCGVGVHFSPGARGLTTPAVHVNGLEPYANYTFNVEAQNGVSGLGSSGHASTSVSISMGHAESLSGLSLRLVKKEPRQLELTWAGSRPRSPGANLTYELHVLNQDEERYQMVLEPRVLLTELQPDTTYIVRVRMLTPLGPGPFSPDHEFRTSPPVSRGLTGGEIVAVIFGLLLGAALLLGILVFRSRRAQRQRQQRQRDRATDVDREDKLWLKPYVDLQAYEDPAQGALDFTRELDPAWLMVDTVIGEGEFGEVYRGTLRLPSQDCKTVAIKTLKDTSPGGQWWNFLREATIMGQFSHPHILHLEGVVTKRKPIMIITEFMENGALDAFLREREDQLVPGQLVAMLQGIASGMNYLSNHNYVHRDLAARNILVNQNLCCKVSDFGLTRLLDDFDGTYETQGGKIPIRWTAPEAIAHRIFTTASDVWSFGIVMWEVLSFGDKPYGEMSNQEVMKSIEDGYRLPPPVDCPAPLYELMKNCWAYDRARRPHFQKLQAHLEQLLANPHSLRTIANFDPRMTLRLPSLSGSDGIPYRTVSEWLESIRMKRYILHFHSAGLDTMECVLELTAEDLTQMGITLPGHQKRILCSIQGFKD

COc1cc(N2CCC(N3CCN(C)CC3)CC2)ccc1Nc1ncc(Cl)c(Nc2ccccc2S(=O)(=O)C(C)C)n1 was tested. Which kinase still bound, per cent of control [1] did it give?
Its kinase still bound, per cent of control is 0.95%.

And the kinase still bound, per cent of control [2]?
The kinase still bound, per cent of control was 40%.

And the kinase still bound, per cent of control [3]?
Its kinase still bound, per cent of control is 0%.

And the kinase still bound, per cent of control [4]?
The kinase still bound, per cent of control was 0.15%.

What about the kinase still bound, per cent of control [5] of the same molecule?
The kinase still bound, per cent of control was 40%.

And the kinase still bound, per cent of control [6]?
The kinase still bound, per cent of control was 0.95%.

And the kinase still bound, per cent of control [7]?
Its kinase still bound, per cent of control is 0%.

What about the kinase still bound, per cent of control [8] of the same molecule?
Its kinase still bound, per cent of control is 14%.

And the kinase still bound, per cent of control [9]?
Its kinase still bound, per cent of control is 12%.

What about the kinase still bound, per cent of control [10] of the same molecule?
The kinase still bound, per cent of control was 40%.

And the kinase still bound, per cent of control [11]?
The kinase still bound, per cent of control was 0.75%.

And the kinase still bound, per cent of control [12]?
The kinase still bound, per cent of control was 2.2%.

And the kinase still bound, per cent of control [13]?
Its kinase still bound, per cent of control is 28%.

And the kinase still bound, per cent of control [14]?
The kinase still bound, per cent of control was 28%.

What about the kinase still bound, per cent of control [15] of the same molecule?
Its kinase still bound, per cent of control is 6.5%.

What about the kinase still bound, per cent of control [16] of the same molecule?
The kinase still bound, per cent of control was 18%.

And the kinase still bound, per cent of control [17]?
Its kinase still bound, per cent of control is 0%.

And the kinase still bound, per cent of control [18]?
The kinase still bound, per cent of control was 2%.

What about the kinase still bound, per cent of control [19] of the same molecule?
The kinase still bound, per cent of control was 27%.

And the kinase still bound, per cent of control [20]?
Its kinase still bound, per cent of control is 1.1%.

And the kinase still bound, per cent of control [21]?
Its kinase still bound, per cent of control is 0.45%.

And the kinase still bound, per cent of control [22]?
Its kinase still bound, per cent of control is 2.6%.

What about the kinase still bound, per cent of control [23] of the same molecule?
The kinase still bound, per cent of control was 0%.

What about the kinase still bound, per cent of control [24] of the same molecule?
Its kinase still bound, per cent of control is 0%.

What about the kinase still bound, per cent of control [25] of the same molecule?
The kinase still bound, per cent of control was 1.6%.

What about the kinase still bound, per cent of control [26] of the same molecule?
The kinase still bound, per cent of control was 40%.

And the kinase still bound, per cent of control [27]?
The kinase still bound, per cent of control was 0.1%.

And the kinase still bound, per cent of control [28]?
Its kinase still bound, per cent of control is 0%.

And the kinase still bound, per cent of control [29]?
The kinase still bound, per cent of control was 40%.

And the kinase still bound, per cent of control [30]?
The kinase still bound, per cent of control was 3.4%.

And the kinase still bound, per cent of control [31]?
The kinase still bound, per cent of control was 40%.

What about the kinase still bound, per cent of control [32] of the same molecule?
Its kinase still bound, per cent of control is 40%.

What about the kinase still bound, per cent of control [33] of the same molecule?
Its kinase still bound, per cent of control is 40%.

What about the kinase still bound, per cent of control [34] of the same molecule?
The kinase still bound, per cent of control was 0.3%.

And the kinase still bound, per cent of control [35]?
The kinase still bound, per cent of control was 0.1%.

What about the kinase still bound, per cent of control [36] of the same molecule?
The kinase still bound, per cent of control was 4.8%.

And the kinase still bound, per cent of control [37]?
The kinase still bound, per cent of control was 13%.
